Assay results published in patent publication US10125097B2, “1- [1-(benzoyl)-pyrrolidine-2-carbonyl]-pyrrolidine-2-carbonitrile derivatives” (UNIVERSITAT DE BARCELONA, priority 2012, dated 2018).
Like-named read-outs stand apart in the source and are kept apart here.

Key:
[1] = molecular target: POP (Homo sapiens (Human), UniProt P48147); details: non-competitive POP inhibitor; Park D H et al., Fitoterapia 2010; read-out: IC50 (POP inhibition); cited from earlier work
[2] = molecular target: human prolyl oligopeptidase (Homo sapiens (Human), UniProt P48147); assay: POP inhibition assay (Z-G-P-AMC substrate, fluorimetric); format: biochemical
Procedure: Expression and Purification of Prolyl Oligopeptidase (POP)
POP was obtained by expression in E. coli and affinity purification using a His tail fusion according to a literature procedure (Tarragó T et al., ChemBioChem 2006; 7:827-33) summarized below:
hPOP expression: E. coli BL21 competent cells were transformed with pETM10 hPOP. To induce expression, a pre-culture of LB medium (50 mL) containing kanamycin (50 μg/mL) was inoculated with one colony and was grown overnight at 37° C. Next day, two cultures of LB medium (500 mL) were inoculated with the overnight culture (10 mL). The inoculated cultures were grown at 37° C. and 220 rpm until the OD595 was 1.2 (2.5-3 hours). IPTG was then added (final concentration of 1 mM) and induction was performed overnight at 25° C. Cells were harvested (3500 g, 15 min, 4° C.) and the pellet was suspended in suspension buffer (50 mL) [Tris-HCl pH 8 (50 mM), NaCl (300 mM), imidazole (1 mM)] and sonicated with use of four cycles (each consisting of 15 sec of sonication and 15 sec of rest) at an intensity of 50% and 0.5 pulses, the sample being kept on ice. After sonication, the sample was centrifuged (40 000 g, 30 min, 4° C.) and the supernatant was used immediately for POP purification. An ÁKTA explorer FPLC system was used for purification. The supernatant was applied at a flow of 1 mL/min to a HiTrapQuelating column (5 mL) previously equilibrated with 5 column volumes of suspension buffer. The column was washed with suspension buffer until the absorbance at 280 nm returned to basal level. The column was then rinsed with 5 volumes of washing buffer (50 mM Tris-HCl, pH 8, 300 mM NaCl, 30 mM imidazole). The elution was performed with 4 volumes of elution buffer (50 mM Tris-HCl, pH 8, 300 mM NaCl, 500 mM imidazole). Fractions (4 mL) were collected during the entire elution. POP activity was checked in all fractions and positive ones were analyzed by SDS-PAGE and stained with Biosafe Comassie Stain G-250. Positive fractions were collected and desalted by use of a HiPrep 26/10 Desalting column with Tris-HCl (50 mM, pH 8) as buffer. Recombinant hPOP was quantified with the Bio-Rad Protein Assay with BSA as standard. Aliquots of the recombinant enzyme were prepared and immediately frozen with liquid nitrogen and stored at −80° C.
POP activity was determined following the method described by Toide et al (Toide K et al., J. Pharmacol. Exp. Ther. 1995; 274:1370-8), using Z-G-P-AMC (N-benzyloxycarbonyl-Gly-Pro-methylcoumarinyl-7-amide) as POP substrate. The reactions were performed in 96-well microtiter plates, which allowed simultaneous monitoring of multiple reactions. For each reaction, activity buffer (134 μl, 100 mM Na/K phosphate buffer, pH 8.0) was pre-incubated for 15 min at 37° C. with hPOP (ranging from 20 to 60 nM, depending on the activity of the hPOP batch) and the corresponding new compound solution (3 μl). A stock solution of new compound was prepared in DMSO (100 mM), and dilutions were prepared from this stock solution with DMSO. Alternatively, the reactions were performed using another activity buffer (141 μL, 100 mM Tris-acetate, […], 1 mM DTT, pH 7.3), pre-incubating with hPOP (10 nM) and the corresponding new compound solution (3 μl) (Conditions B).
After preincubation, Z-G-P-AMC (10 μl, 3 mM in 40% 1,4-dioxane) was added (3 μl, 1.5 mM in 40% of 1,4-dioxane, in Conditions B), and the reaction was incubated for 1 hour at 37° C. The reaction was stopped by adding sodium acetate (150 μl, 1 M, pH 4) and the formation of AMC was measured fluorimetrically. The excitation and emission wavelengths were 360/40 and 485/20 nm, respectively.
Several concentration points (ranging from 25 μM to 400 μM) were measured for each compound. The inhibitory activity on prolyl oligopeptidase was calculated according to eq 1. For each new compound, the fluorescence in the presence (a) and in the absence of hPOP (b) was measured. […]

[3] = Parallel artificial membrane permeability assay (PAMPA); format: in vitro ADME; details: 200 μM initial concentration, pH 7.4, 4 hours, room temperature; for Papp at 4 h, 200 μM: PAMPA, read-out: Effective permeability Pe
Procedure: Parallel artificial membrane permeability assay (PAMPA) described in Kansy M et al., J. Med. Chem. 1998; 41(7):1007-10 was used to determine the capacity of compounds to cross the Blood-Brain Barrier (BBB) by passive diffusion (Di L et al., Eur. J. Med. Chem. 2003; 38(3):223-32). The effective permeability (Pe) of the compounds was measured at an initial concentration of 200 μM. The buffer solution was prepared from a commercial concentrated one following the manufacturer's instructions. pH was adjusted to 7.4 using a 0.5 M NaOH solution. A stock solution of new compound was prepared in DMSO and diluted with buffer solution to a final 200 μM concentration (0.5% DMSO content). The PAMPA sandwich was separated and each donor well was filled with 200 μL of the compound solution. The acceptor plate was placed into the donor plate, ensuring that the underside of the membrane was in contact with buffer. 4 μL of the mixture of phospholipids (20 mg/mL) in dodecane was added to the filter of each well, and 200 μL of buffer solution was added to the each acceptor well. The plate was covered and incubated at room temperature in a saturated humidity atmosphere for 4 hours under orbital agitation at 100 rpm. After 4 hours, the contents of the acceptor and donor compartments were analyzed by HPLC: 150 μL of each well from the donor plate and 150 μL of each well from the acceptor plate were transferred to HPLC vials, injecting each sample into a reverse-phase C18 column (150 mm×4.6 mm×5 μm, 100 Å) (100 μL/injection from the acceptor wells, 10 μL/injection from the donor wells and for t0 references). Transport was also confirmed by MALDI-TOF spectrometry.
The phospholipid mixture used was a porcine polar brain lipid extract, provided by Avanti polar lipids, with the following composition: 12.6% phosphatidylcholine (PC), 33.1% phosphatidylethanolamine (PE), 18.5% phosphatidylserine (PS), 4.1% phosphatidylinositol (PI), 0.8% phosphatidic acid and 30.9% of other compounds.
The effective permeability (Pe) after 4 hours was calculated using equation 2 and the percentage of transport was calculated using equation 3:
[formula] wherein: t is time (h) CA(t) is the compound concentration in the acceptor well at time t and CD(to) is the compound concentration in the donor well at to.

Chain of human prolyl oligopeptidase (P48147 whole entry): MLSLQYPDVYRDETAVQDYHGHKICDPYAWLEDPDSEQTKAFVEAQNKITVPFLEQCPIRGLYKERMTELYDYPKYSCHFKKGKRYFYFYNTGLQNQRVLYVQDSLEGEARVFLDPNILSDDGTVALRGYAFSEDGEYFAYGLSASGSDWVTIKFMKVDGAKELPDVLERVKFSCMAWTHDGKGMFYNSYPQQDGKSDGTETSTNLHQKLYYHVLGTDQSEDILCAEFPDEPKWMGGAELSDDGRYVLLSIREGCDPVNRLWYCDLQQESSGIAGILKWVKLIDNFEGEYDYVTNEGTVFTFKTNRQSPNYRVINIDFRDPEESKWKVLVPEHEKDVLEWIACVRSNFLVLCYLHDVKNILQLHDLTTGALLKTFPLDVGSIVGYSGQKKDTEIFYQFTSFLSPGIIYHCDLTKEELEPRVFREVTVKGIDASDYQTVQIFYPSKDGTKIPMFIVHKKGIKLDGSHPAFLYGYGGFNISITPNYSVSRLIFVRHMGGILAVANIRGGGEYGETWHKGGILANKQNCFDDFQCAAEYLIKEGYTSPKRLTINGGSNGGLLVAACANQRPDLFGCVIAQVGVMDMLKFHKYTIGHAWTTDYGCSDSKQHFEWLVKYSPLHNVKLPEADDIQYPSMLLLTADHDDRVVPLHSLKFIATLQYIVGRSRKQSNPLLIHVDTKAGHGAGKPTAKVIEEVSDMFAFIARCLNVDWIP
Chain of POP (P48147 whole entry): as above

| IC50 ([2]; 100 mM Na/K phosphate buffer, pH 8.0, hPOP 20 to 60 nM, Z-G-P-AMC, 1 hour at 37° C., read-out: IC50, inhibition of human prolyl oligopeptidase) | % T (percentage of transport) [3] | Papp at 4 h, 200 μM [3] | IC50 ([2]; Conditions B: 100 mM Tris-acetate, 10 mM BSA, 1 mM DTT, pH 7.3, hPOP 10 nM, read-out: IC50, inhibition of human prolyl oligopeptidase, measured in conditions B) | Structure (SMILES) | IC50 [1] |
| --- | --- | --- | --- | --- | --- |
| – | – | – | – | O=C(/C=C/c1ccc(O)c(O)c1)O[C@H](Cc1ccc(O)c(O)c1)C(=O)O [rosmarinic acid] | 63.7 µM |
| 2.14 µM | 19.08% | 50.2 nm/s | – | COc1cc(C(=O)N2CC(F)(F)C[C@H]2C(=O)N2CCC[C@H]2C#N)cc(OC(=O)C(C)(C)C)c1OC [Example 16, (S)-1-((2S)-1-(3-pivaloyloxy-4,5-dimethoxybenzoyl)-4,4-difluoropyrrolidine-2-carbonyl)pyrrolidine-2-carbonitrile] | – |
| – | 10.43% | 55.7 nm/s | 0.005 µM | N#C[C@@H]1CCCN1C(=O)[C@@H]1CC(F)(F)CN1C(=O)c1ccc(OCc2ccccc2)c(F)c1 [Example 21, (S)-1-((S)-1-(4-(benzyloxy)-3-fluorobenzoyl)-4,4-difluoropyrrolidine-2-carbonyl)pyrrolidine-2-carbonitrile] | – |
